Measurements from patent publication US8871934B2, “Fluorene compound and pharmaceutical use thereof” (Japan Tobacco Inc., priority 2008, dated 2014).
Like-named read-outs stand apart in the source and are kept apart here.

Molecular target: human PDHK2 (hPDHK2) (Homo sapiens (Human), UniProt Q15119)
Assay: Inhibitory action of PDHK activity in vitro (kinase reaction, residual PDH activity measured)
Format: biochemical
[1] = PDHK inhibitory activity, class symbol of IC50
[2] = read-out: PDHK inhibitory activity IC50
[3] = PDHK inhibitory activity (class symbol)

Compound | IC50 [1] [µM] | IC50 [2] [µM] | IC50 [3] [µM] | IC50 (class symbol of IC50, read-out: PDHK inhibitory activity) [µM]
O=C1OCCCN1CCOc1ccc2c(c1)C(O)(C(F)(F)F)c1ccccc1-2 (stereo not drawn) [compound 470] | 0.1 to 1 | 0.168 |  | 
O=C1OCCN1CCOc1ccc2c(c1)C(O)(C(F)(F)F)c1ccccc1-2 (stereo not drawn) [compound 459] | 0.1 to 1 | 0.185 |  | 
Cc1cc(-c2ccc3c(c2)C(O)(C(F)(F)F)c2ccccc2-3)ccn1 (stereo not drawn) [compound 198] | 0.1 to 1 | 0.126 |  | 
CNC(=O)COC1CN(C(=O)c2ccc3c(c2)C(O)(C(F)(F)F)c2ccccc2-3)C1 (stereo not drawn) [compound 117] | 0.1 to 1 | 0.909 |  | 
CC(C)NC(=O)Cn1cc(-c2cccc3c2-c2ccccc2C3(O)C(F)(F)F)cn1 (stereo not drawn) [compound 514] | < 0.1 | 0.058 |  | 
COC(=O)COc1cc(Cl)c2c(c1)C(O)(C(F)(F)F)c1ccccc1-2 (stereo not drawn) [compound 480] | 0.1 to 1 | 0.553 |  | 
O=C1CCCN1CCCOc1ccc2c(c1)C(O)(C(F)(F)F)c1ccccc1-2 (stereo not drawn) [compound 395] | 0.1 to 1 | 0.699 |  | 
O=C(COc1ccc2c(c1)C(O)(C(F)(F)F)c1ccccc1-2)N(CCO)CCO (stereo not drawn) [compound 400] | > 1 | 7.08 |  | 
OC1(C(F)(F)F)c2ccccc2-c2c(-c3ccncc3)cccc21 (stereo not drawn) [compound 139] | > 1 | > 10 |  | 
CCOC(=O)CCCCOc1ccc2c(c1)C(O)(C(F)(F)F)c1ccccc1-2 (stereo not drawn) [compound 283] | 0.1 to 1 | 0.571 |  | 
Cn1cc(-c2cc(OCC(O)CO)cc3c2-c2ccccc2C3(O)C(F)(F)F)cn1 (stereo not drawn) [compound 571] | < 0.1 | 0.05 |  | 
COc1ccccc1-c1ccc2c(c1)C(O)(C(F)(F)F)c1ccccc1-2 (stereo not drawn) [compound 170] | > 1 | 6.74 |  | 
COC(=O)c1cc(Cl)c2c(c1)C(O)(C(F)(F)F)c1ccccc1-2 (stereo not drawn) [compound 61] | 0.1 to 1 | 0.294 |  | 
Oc1ccc2c(c1)C(O)(C(F)(F)F)c1ccccc1-2 (stereo not drawn) [compound 38] | > 1 | 12 |  | 
CN(C)C(=O)c1ccccc1-c1ccc2c(c1)C(O)(C(F)(F)F)c1ccccc1-2 (stereo not drawn) [compound 184] | > 1 | > 10 |  | 
CCOc1cccc2c1-c1ccccc1C2(O)C(F)(F)F (stereo not drawn) [compound 66] | > 1 | 66.3 |  | 
CN(C)C(=O)C1CN(C(=O)c2ccc3c(c2)C(O)(C(F)(F)F)c2ccccc2-3)C1 (stereo not drawn) [compound 125] | 0.1 to 1 | 0.227 |  | 

Compound | IC50 [1] [µM] | IC50 [2] [µM] | IC50 [3] [µM] | IC50 (class symbol of IC50, read-out: PDHK inhibitory activity) [µM]
Cn1cc(-c2cc(OCC(=O)N3CC(CO)C3)cc3c2-c2ccccc2C3(O)C(F)(F)F)cn1 (single isomer, unassigned) [compound 474] | < 0.1 | 0.019 |  | 
CC(=O)c1cc(-c2cnn(CCO)c2)cc2c1-c1ccccc1C2(O)C(F)(F)F (stereo not drawn) [compound 585] | < 0.1 | 0.026 |  | 
OCC(CO)c1ncc(-c2cc(F)cc3c2-c2ccccc2C3(O)C(F)(F)F)o1 (single isomer, unassigned) [compound 682] |  | 0.079 | < 0.1 | 
O=C1CCC(COc2ccc3c(c2)C(O)(C(F)(F)F)c2ccccc2-3)N1CCO (stereo not drawn) [compound 432] | 0.1 to 1 | 0.247 |  | 
OC1(C(F)(F)F)c2ccccc2-c2ccc(Cn3cccn3)cc21 (stereo not drawn) [compound 559] |  | > 1 |  | > 1
O=C(c1cc(-c2cnn(CCO)c2)c2c(c1)C(O)(C(F)(F)F)c1ccccc1-2)N1CCCC1 (single isomer, unassigned) [compound 657] |  | 0.02 | < 0.1 | 
CC(C)n1cc(-c2cc(OCCCC(=O)O)cc3c2-c2ccccc2C3(O)C(F)(F)F)cn1 (single isomer, unassigned) [compound 553] | < 0.1 | 0.018 |  | 
CC(C)(C)n1cc(-c2cccc3c2-c2ccccc2C3(O)C(F)(F)F)cn1 (stereo not drawn) [compound 523] | < 0.1 | 0.048 |  | 
O=C(c1ccc2c(c1)C(O)(C(F)(F)F)c1ccccc1-2)N1CC(C(=O)N2CCCCC2)C1 (stereo not drawn) [compound 202] | 0.1 to 1 | 0.247 |  | 
O=C(COc1ccc2c(c1)C(O)(C(F)(F)F)c1ccccc1-2)N1CCC(O)CC1 (stereo not drawn) [compound 396] | 0.1 to 1 | 0.627 |  | 
CNc1ccc2c(c1)C(O)(C(F)(F)F)c1ccccc1-2 (stereo not drawn) [compound 95] | > 1 | 7.83 |  | 
CCCN(C)C(=O)c1ccc2c(c1)C(O)(C(F)(F)F)c1ccccc1-2 (stereo not drawn) [compound 307] | > 1 | 3.2 |  | 
Cn1cc(-c2cc(OCCN3CCCC3=O)cc3c2-c2ccccc2C3(O)C(F)(F)F)cn1 (stereo not drawn) [compound 412] | < 0.1 | 0.022 |  | 
O=C(O)COC1CN(C(=O)c2ccc3c(c2)C(O)(C(F)(F)F)c2ccccc2-3)C1 (stereo not drawn) [compound 107] | > 1 | 2.61 |  | 
CC(Oc1ccc2c(c1)C(O)(C(F)(F)F)c1ccccc1-2)C(=O)O (stereo not drawn) [compound 413] | > 1 | 1.23 |  | 
CN(C)C1CCN(C(=O)c2ccc3c(c2)C(O)(C(F)(F)F)c2ccccc2-3)C1 (stereo not drawn) [compound 216] | > 1 | 2.56 |  | 
